Source: US10934297B2, “5-heteroaryl substituted indazole-3-carboxamides and preparation and use thereof” (Samumed, LLC, priority 2018, dated 2021)

Key:
[1] = test system: Wnt activity (Sp5-Luc reporter in SW480 cells); assay: Screening assay for Wnt activity: Sp5-Luc reporter gene assay in SW480 colon carcinoma cells; format: cell-based, human; settings: Homo sapiens, 36 to 48 hours
Summary of the method: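 EC50 values come from a variable-slope four-parameter fit of luminescence normalized to DMSO-only wells. The read-out follows 36–48 h incubation at 37 °C, 5% CO2, in DMEM containing 1% fetal bovine serum. Cells are hygromycin-selected SW480 stably expressing firefly luciferase under a Wnt-responsive Sp5 promoter (eight TCF/LEF sites).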

[2] = biological target: DYRK1A kinase (Homo sapiens (Human), UniProt Q13627); assay: DYRK1A kinase assay (Ser/Thr 18 peptide Z-lyte FRET); format: biochemical; settings: read-out: EC50 (method: IC50)
Summary of the method: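 Kinase reactions with compound ran 1 h at room temperature in duplicate, and development reagent was then added for another hour.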

[3] = biological target: GSK3β kinase (Homo sapiens (Human), UniProt P49841); assay: GSK3β kinase assay (Ser/Thr 09 peptide Z-lyte FRET); format: biochemical; settings: read-out: EC50 (method: IC50)
Chain of GSK3β kinase (P49841 whole entry): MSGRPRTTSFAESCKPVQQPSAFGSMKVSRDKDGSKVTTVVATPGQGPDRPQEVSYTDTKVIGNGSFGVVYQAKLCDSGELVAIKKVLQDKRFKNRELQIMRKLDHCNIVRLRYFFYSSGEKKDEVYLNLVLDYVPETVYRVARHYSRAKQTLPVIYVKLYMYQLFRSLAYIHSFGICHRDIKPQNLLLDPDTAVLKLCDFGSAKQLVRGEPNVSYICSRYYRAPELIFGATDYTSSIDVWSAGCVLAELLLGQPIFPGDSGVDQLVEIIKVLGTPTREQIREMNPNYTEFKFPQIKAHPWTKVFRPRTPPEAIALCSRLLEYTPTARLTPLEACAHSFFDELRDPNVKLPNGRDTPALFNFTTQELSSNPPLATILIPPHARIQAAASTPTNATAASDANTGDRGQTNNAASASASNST
Summary of the method: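 Non-radioactive Z-lyte FRET read-out, kinase activity expressed as coumarin/fluorescein emission ratio. Compounds incubated with the reaction mixture one hour at room temperature in duplicate, then development buffer added for another hour. IC50 from non-linear regression of dose-response curves.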

[4] = test system: SW480 colon carcinoma cells; assay: Cell viability assay (CellTiter-Glo) in SW480 colon carcinoma cells; format: cell-based, human; settings: Homo sapiens, 96 h, four days
Summary of the method: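 Viability was taken from CellTiter-Glo ATP luminescence, read about 12 min after reagent addition, relative to DMSO controls. The cells were Sp5-Luc reporter SW480 colon carcinoma cells, 2,000/well in 1% FBS DMEM, exposed to compound for four days at 37 °C.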

[5] = test system: primary human fibroblasts derived from IPF patients (LL29 cells); assay: Inhibition of the fibrotic process: αSMA staining in TGF-β1 treated LL29 fibroblasts; format: cell-based; settings: Homo sapiens, Fibroblast, 96 h; LL29 cells, TGF-β1 20 ng/mL, 4 days, % αSMA positive cells
Summary of the method: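 LL29 fibroblasts from IPF patients, in F12 medium with 1% FBS, treated with TGF-β1 plus compound; TGF-β1 with DMSO as positive control, DMSO alone as negative control. After 4 days' incubation, SYTOX green nucleic acid stain added at 1 μM final, 30 min at room temperature.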

[6] = test system: IL-6; assay: IL-6 inhibition in LPS-stimulated human peripheral blood mononuclear cells (HTRF); format: cell-based; settings: Homo sapiens, PBMC; for EC50: huPBMCs, LPS 50 ng/mL, 22 hours, IL-6 HTRF; for inhibition at 10 µM: read-out: percent inhibition at 10 μM
Summary of the method: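 HTRF 665/620 nm ratio, read after 3 h antibody incubation at room temperature, quantified IL-6 released by fresh human PBMCs (1×10e6 cells/mL, 1% FBS-RPMI). The cells got compound, then 50 ng/mL LPS at 2 h, followed by a further 22 h at 37° C. EC50 came from DMSO-normalized readings run in duplicate.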

[7] = test system: primary human mesenchymal stem cells (hMSCs); assay: Tenocyte differentiation assay (SCXA-positive cells) in hMSCs; format: cell-based; settings: for EC50: Homo sapiens, Mesenchymal stem cells, 96 h, hMSCs, 4 days, SCXA positive cells; for percent in parentheses under EC50 >100: given for EC50 >100 μM, meaning not defined in this example
Source text: Representative compounds were screened using primary human mesenchymal stem cells (hMSCs) to determine their ability to induce tenocyte differentiation (process by which tendon is developed).
Primary human mesenchymal stem cells (hMSCs) were purchased from Lonza (Walkersville, Md.) and expanded in Mesenchymal Stem Cell Growth Media (Lonza). Cells between passage 3 and 6 were used for the experiments.
Cells were fixed using 4% formaldehyde (Electron Microscopy Sciences), and stained with anti-Sclerasis (anti-SCXA) antibodies (Abgent, San Diego, Calif.) [Webb S., et.al., Retinoic acid receptor signaling preserves tendon stem cell characteristics and prevents spontaneous differentiation in vitro, Stem Cell Research & Therapy 2016, 7:45] overnight at 4° C. […] Number of cells positive for SCXA in each well was quantified using the CellInsight CX5. Data was normalized to the average of 12 DMSO treated wells on the same plate using Dotmatics Studies module. The normalized averages (fold change over DMSO) of 3 replicate wells for each compound concentration were calculated. Due to solubility limitations of some of the compounds, values for higher doses were manually corrected and curve fitting and EC50 determinations were performed using Dotmatics Studies.

Structure (SMILES) | EC50 [1] | IC50 [2] | IC50 [3] | EC50 [4] | EC50 [5] | EC50 [6] | EC50 [7] | percent in parentheses under EC50 >100 [7] | inhibition at 10 µM [6]
CN1CCC(n2cc(-c3ccc4[nH]nc(C(=O)Nc5ccc(F)cc5)c4c3)cn2)CC1 [Compound 159, N-(4-Fluorophenyl)-5-(1-(1-methylpiperidin-4-yl)-1H-pyrazol-4-yl)-1H-indazole-3-carboxamide] | 680 nM | 23 nM | 548 nM | 810 nM | 1370 nM | 2.82 µM | > 100000 nM | (15.5%) | –
Cc1ncc(-c2cc3c(C(=O)Nc4ccc(OC5CCN(C)CC5)cc4)n[nH]c3cc2F)s1 [Compound 163, 6-Fluoro-N-(4-((1-methylpiperidin-4-yl)oxy)phenyl)-5-(2-methylthiazol-5-yl)-1H-indazole-3-carboxamide] | 1530 nM | 4 nM | 94 nM | 331 nM | 1000 nM | 8.83 µM | > 100000 nM | (40.7%) | –
CN1CCC(Oc2cc(NC(=O)c3n[nH]c4cc(F)c(-c5cnn(C)c5)cc34)ccn2)CC1 [Compound 156, 6-Fluoro-5-(1-methyl-1H-pyrazol-4-yl)-N-(2-((1-methylpiperidin-4-yl)oxy)pyridin-4-yl)-1H-indazole-3-carboxamide] | 109 nM | 2 nM | 53 nM | 64 nM | 1380 nM | 4.29 µM | 2640 nM | – | –
CN1CCC(n2cc(-c3ccc4[nH]nc(C(=O)Nc5cncc(F)c5)c4c3)cn2)CC1 [Compound 125, N-(5-Fluoropyridin-3-yl)-5-(1-(1-methylpiperidin-4-yl)-1H-pyrazol-4-yl)-1H-indazole-3-carboxamide] | 355 nM | 8 nM | 278 nM | 664 nM | 599 nM | 3.52 µM | > 100000 nM | (12.3%) | –
Cc1nc(-c2ccc3[nH]nc(C(=O)Nc4ccc(OC5CCN(C)CC5)cc4)c3c2)cs1 [Compound 162, N-(4-((1-Methylpiperidin-4-yl)oxy)phenyl)-5-(2-methylthiazol-4-yl)-1H-indazole-3-carboxamide] | > 10000 nM | 141 nM | 5060 nM | 4600 nM | 2640 nM | 7.69 µM | > 100000 nM | (12.7%) | –
Cc1ncc(-c2ccc3[nH]nc(C(=O)Nc4ccc(OC5CCN(C)CC5)cc4)c3c2)n1C [Compound 161, 5-(1,2-Dimethyl-1H-imidazol-5-yl)-N-(4-((1-methylpiperidin-4-yl)oxy)phenyl)-1H-indazole-3-carboxamide] | 642 nM | 5 nM | 120 nM | 833 nM | 3720 nM | 3.4 µM | > 100000 nM | (31.8%) | –
CN1CCC(CNC(=O)c2n[nH]c3ccc(-c4cnn(C)c4)cc23)CC1 [Compound 147, 5-(1-Methyl-1H-pyrazol-4-yl)-N-((1-methylpiperidin-4-yl)methyl)-1H-indazole-3-carboxamide] | 3870 nM | 26 nM | 15 nM | 6700 nM | 723 nM | 1.07 µM | 2640 nM | – | –
Cc1cc(NC(=O)c2n[nH]c3ccc(-c4cnn(C5CCN(C)CC5)c4)cc23)sn1 [Compound 143, N-(3-Methylisothiazol-5-yl)-5-(1-(1-methylpiperidin-4-yl)-1H-pyrazol-4-yl)-1H-indazole-3-carboxamide] | 90 nM | 5 nM | 52 nM | 60 nM | 207 nM | 1.41 µM | > 100000 nM | (23.0%) | –
CC(C)CN1CC[C@H](NC(=O)c2n[nH]c3cc(F)c(-c4cnn(C)c4)cc23)[C@@H](F)C1 [Compound 34, 6-Fluoro-N-((3S,4S)-3-fluoro-1-isobutylpiperidin-4-yl)-5-(1-methyl-1H-pyrazol-4-yl)-1H-indazole-3-carboxamide] | > 10000 nM | 16 nM | 50 nM | 1840 nM | 439 nM | 3.11 µM | 1320 nM | – | –
CC(C)CN1CC[C@H](NC(=O)c2n[nH]c3c(F)cc(-c4cnn(C)c4)cc23)[C@@H](F)C1 [Compound 35, 7-Fluoro-N-((3S,4S)-3-fluoro-1-isobutylpiperidin-4-yl)-5-(1-methyl-1H-pyrazol-4-yl)-1H-indazole-3-carboxamide] | 345 nM | 261 nM | 157 nM | 8280 nM | 288 nM | > 10 µM | 2070 nM | – | 9.2%
Cn1cc(-c2ccc3[nH]nc(C(=O)Nc4cnn(C5CCNCC5)c4)c3c2)cn1 [Compound 140, 5-(1-Methyl-1H-pyrazol-4-yl)-N-(1-(piperidin-4-yl)-1H-pyrazol-4-yl)-1H-indazole-3-carboxamide] | 713 nM | 2 nM | 5 nM | 2600 nM | 301 nM | 1.25 µM | > 100000 nM | (12.6%) | –
CC(C)CN1CC[C@H](NC(=O)c2n[nH]c3ccc(-c4cnn(C5CC5)c4)cc23)[C@@H](F)C1 [Compound 99, 5-(1-Cyclopropyl-1H-pyrazol-4-yl)-N-((3 S,4S)-3-fluoro-1-isobutylpiperidin-4-yl)-1H-indazole-3-carboxamide] | 840 nM | 813 nM | 68 nM | 5180 nM | 855 nM | 3.28 µM | 2830 nM | – | –
Cc1cnc(NC(=O)c2n[nH]c3ccc(-c4cnn(C5CCN(C)CC5)c4)cc23)s1 [Compound 144, 5-(1-(1-Methylpiperidin-4-yl)-1H-pyrazol-4-yl)-N-(5-methylthiazol-2-yl)-1H-indazole-3-carboxamide] | > 10000 nM | 8 nM | 6440 nM | 1300 nM | 2190 nM | > 10 µM | > 100000 nM | (27.4%) | 49%
Cc1ncc(-c2ccc3[nH]nc(C(=O)NC4CCN(c5ccc(F)cc5)CC4)c3c2)n1C [Compound 148, 5-(1,2-Dimethyl-1H-imidazol-5-yl)-N-(1-(4-fluorophenyl)piperidin-4-yl)-1H-indazole-3-carboxamide] | 4490 nM | 49 nM | 57 nM | 8020 nM | 4620 nM | > 10 µM | 3090 nM | – | 24.2%
Cc1ncc(NC(=O)c2n[nH]c3cc(F)c(-c4cnn(C5CCN(C)CC5)c4)cc23)s1 [Compound 127, 6-Fluoro-5-(1-(1-methylpiperidin-4-yl)-1H-pyrazol-4-yl)-N-(2-methylthiazol-5-yl)-1H-indazole-3-carboxamide] | 100 nM | 4 nM | 245 nM | 93 nM | 48 nM | 0.786 µM | 2490 nM | – | –
CN1CCN(c2cccc(NC(=O)c3n[nH]c4cc(F)c(-c5cnn(C)c5)cc34)c2)CC1 [Compound 149, 6-Fluoro-5-(1-methyl-1H-pyrazol-4-yl)-N-(3-(4-methylpiperazin-1-yl)phenyl)-1H-indazole-3-carboxamide] | 217 nM | 1 nM | 49 nM | 331 nM | > 10000 nM | > 10 µM | > 100000 nM | (36.0%) | 44.7%
